Square brackets hold non-standard residues; d marks the D form. Peptide text beside a SMILES is read from it. * marks the point of attachment. 1Nal = N[C@@H](Cc1cccc2ccccc12)C(=O)O; 2Nal = N[C@@H](Cc1ccc2ccccc2c1)C(=O)O; Cbz = O=C(OCc1ccccc1)*

Test [1] is described as follows: Compound was evaluated for its ability to inhibit activation of NFkB protease stably expressed in human Jurkat T-cells. Format: cell-based.
Test [2] deals with Jurkat. Description: Ability to decrease IL-2 levels in human Jurkat T-cells. Format: functional, cell-based.
For test [3], the system named is Jurkat. Put plainly: Ability to decrease IL-8 levels in human Jurkat T-cells. Format: functional, cell-based.

As usually defined, the IC50 is the concentration at which inhibition is half-maximal. Molecule `CC(C)C[C@H](NC(=O)OCc1ccccc1)C(=O)N[C@@H](CC(C)C)C(=O)N[C@@H](Cc1ccccc1)C(=O)C(F)(F)C(F)(F)F` returned a half-inhibitory concentration (IC50) in test [1] of more than 30 µM. The same measure, in the same setting: under `CC(C)C[C@H](NC(=O)OCc1ccccc1)C(=O)N[C@@H](CC(C)C)C(=O)N[C@@H](Cc1ccccc1)C(=O)Nc1ccc(C(F)(F)F)cc1` stands more than 30 µM; under `CC(=O)c1cccc(NC(=O)[C@H](CC(C)C)NC(=O)[C@H](CC(C)C)NC(=O)OCc2ccccc2)c1`, more than 10 µM. Still for that read-out and setting: under `CC(C)C[C@H](NC(=O)OCc1ccccc1)C(=O)N[C@@H](CC(C)C)C(=O)N[C@@H](Cc1ccccc1)C(=O)C(=O)C(=O)OCc1ccccc1` stands 20 µM; under `CC(=O)[C@H](Cc1ccccc1)NC(=O)[C@H](CC(C)C)NC(=O)[C@H](CC(C)C)NC(=O)OCc1ccccc1`, more than 30 µM. Consider `CC(C)CC(NC(=O)OCc1ccccc1)C(=O)NC(CC(C)C)C(=O)NC(C=O)Cc1ccccc1` (stereo not drawn) (Cbz-Leu-Leu-Phe-aldehyde; configuration not given here), for which the IC50 in the test with Jurkat [2] was 0.9 µM; in test [1], 2 µM; with Jurkat [3], 2 µM. In turn, `CC(C)C[C@H](NC(=O)[C@H](Cc1cccc2ccccc12)NC(=O)[C@H](Cc1ccc2ccccc2c1)NC(=O)OCc1ccccc1)C(=O)O` (Cbz-[2Nal]-[1Nal]-Leu-OH) yielded an IC50 in test [1] of 3 µM. The same measure, in the same setting: in the case of `CON(C)C(=O)[C@H](Cc1ccccc1)NC(=O)[C@H](CC(C)C)NC(=O)[C@H](CC(C)C)NC(=O)OCc1ccccc1` (stereo in doubt; 4a(L)) it was 18 µM; in that of `CON(C)C(=O)[C@H](Cc1ccccc1)NC(=O)[C@H](CC(C)C)NC(=O)[C@H](CC(C)C)NC(=O)OCc1ccccc1` (stereo in doubt; 4b(D)), more than 30 µM.

For the origin of these results see ChEMBL document CHEMBL1128945, “Peptide inhibitors of IKB protease: Modification of the C-termini of Z-LLF-CHO” (Bioorg Med Chem Lett, 1996).
